In the experiment the test system is CD2F1 mice, L1210 leukemia ip, survival T/C. Nature of the experiment: NCI In Vivo Anticancer Drug Screen. Data for tumor model L1210 Leukemia (intraperitoneal) in CD2F1 (CDF1) mice. The following applies: higher = longer survival. A digest of the protocol:
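Antitumor effect is scored in animals hosting a serially transplanted tumor. Values compare compound-dosed animals against vehicle-only controls as a simple quotient.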

Where [1] appears, read: endpoint: mean survival time, dose: 100.0 mg/kg/injection, schedule: Q01DX009 (ip), vehicle: saline with Tween-80.
The mark [2] stands for this setting: endpoint: mean survival time, dose: 200.0 mg/kg/injection, schedule: Q01DX009 (ip), vehicle: saline with Tween-80.
The mark [3] stands for this setting: endpoint: mean survival time, dose: 400.0 mg/kg/injection, schedule: Q01DX009 (ip), vehicle: saline with Tween-80.

Inconclusive results and toxic doses are left out.

For `Cn1c(=O)ccc2ccccc21`, the T/C is, setting by setting: (endpoint: mean survival time, dose: 100.0 mg/kg/injection, schedule: Q04DX002 (ip), vehicle: saline with Tween-80) 101 % of control; (endpoint: mean survival time, dose: 200.0 mg/kg/injection, schedule: Q04DX002 (ip), vehicle: saline with Tween-80) 87 % of control.
On to `O=c1ccn(C2OC(CO)C(F)(CO)C2O)c(=O)[nH]1` (stereo unspecified), for which the T/C reads like this: (endpoint: mean survival time, dose: 12.5 mg/kg/injection, schedule: Q01DX005 (ip), vehicle: water) 103 % of control; (endpoint: mean survival time, dose: 25.0 mg/kg/injection, schedule: Q01DX005 (ip), vehicle: water) 109 % of control; (endpoint: mean survival time, dose: 50.0 mg/kg/injection, schedule: Q01DX005 (ip), vehicle: water) 97 % of control; (endpoint: mean survival time, dose: 100.0 mg/kg/injection, schedule: Q01DX005 (ip), vehicle: water) 94 % of control; (endpoint: mean survival time, dose: 200.0 mg/kg/injection, schedule: Q01DX005 (ip), vehicle: water) 105 % of control.
As to `CCOc1ccc(OCC)c(NC(=O)c2ccccc2)c1`, the T/C under setting [1] is 98 % of control, the T/C under setting [2] is 107 % of control and the T/C under setting [3] was 100 % of control.
Consider `COc1cc(C=O)cc(O)c1O`, for which the T/C reads like this: (endpoint: mean survival time, dose: 50.0 mg/kg/injection, schedule: Q01DX001 (ip), vehicle: saline) 94 % of control; (endpoint: mean survival time, dose: 100.0 mg/kg/injection, schedule: Q01DX001 (ip), vehicle: saline) 96 % of control; (endpoint: mean survival time, dose: 100.0 mg/kg/injection, schedule: Q04DX003 (ip), vehicle: saline) 95 % of control; (endpoint: mean survival time, dose: 200.0 mg/kg/injection, schedule: Q01DX001 (ip), vehicle: saline) 91 % of control; (endpoint: mean survival time, dose: 200.0 mg/kg/injection, schedule: Q04DX003 (ip), vehicle: saline) 92 % of control; (endpoint: mean survival time, dose: 400.0 mg/kg/injection, schedule: Q01DX001 (ip), vehicle: saline) 89 % of control. Also, the T/C (endpoint: mean survival time, dose: 400.0 mg/kg/injection, schedule: Q04DX003 (ip), vehicle: saline) was 92 % of control.
Consider `COc1cccc(N=C(N)N=C(N)N)c1`, for which the T/C reads like this: (endpoint: mean survival time, dose: 100.0 mg/kg/injection, schedule: Q01DX009 (ip), vehicle: saline) 95 % of control; (endpoint: mean survival time, dose: 200.0 mg/kg/injection, schedule: Q01DX009 (ip), vehicle: saline) 90 % of control.
On to `CC1C(C(=O)c2ccccc2)C(c2ccccc2)OP1(c1ccccc1)(c1ccccc1)c1ccccc1` (stereo unspecified), for which the T/C (endpoint: mean survival time, dose: 6.25 mg/kg/injection, schedule: Q01DX001 (ip), vehicle: saline with Tween-80) is 97 % of control; the T/C (endpoint: mean survival time, dose: 12.5 mg/kg/injection, schedule: Q01DX001 (ip), vehicle: saline with Tween-80) is 96 % of control; the T/C (endpoint: mean survival time, dose: 25.0 mg/kg/injection, schedule: Q01DX001 (ip), vehicle: saline with Tween-80) is 105 % of control.
On to `CCOC(=O)CCc1ccc2c(c1)OCO2`, for which the T/C under setting [1] was 103 % of control, the T/C under setting [2] was 103 % of control and the T/C under setting [3] was 113 % of control.
Turning to `CCN(CC)CCNc1ccc(CO)c2sc3ccccc3c(=O)c12`, the T/C reads like this: (endpoint: mean survival time, dose: 4.0 mg/kg/injection, schedule: Q03HX008 (ip), vehicle: saline) 101 % of control; (endpoint: mean survival time, dose: 4.0 mg/kg/injection, schedule: Q03HX016 (ip), vehicle: saline) 104 % of control; (endpoint: mean survival time, dose: 4.0 mg/kg/injection, schedule: Q03HX024 (ip), vehicle: saline) 110 % of control; (endpoint: mean survival time, dose: 8.0 mg/kg/injection, schedule: Q03HX008 (ip), vehicle: saline) 112 % of control; (endpoint: mean survival time, dose: 8.0 mg/kg/injection, schedule: Q03HX016 (ip), vehicle: saline) 108 % of control; (endpoint: mean survival time, dose: 8.0 mg/kg/injection, schedule: Q03HX024 (ip), vehicle: saline) 117 % of control. For the same compound, the T/C (endpoint: mean survival time, dose: 12.5 mg/kg/injection, schedule: Q01DX009 (ip), vehicle: Klucel (hydroxypropylcellulose) (HPC)) was 106 % of control; the T/C (endpoint: mean survival time, dose: 16.0 mg/kg/injection, schedule: Q03HX008 (ip), vehicle: saline) was 105 % of control; the T/C (endpoint: mean survival time, dose: 16.0 mg/kg/injection, schedule: Q03HX016 (ip), vehicle: saline) is 110 % of control; the T/C (endpoint: mean survival time, dose: 16.0 mg/kg/injection, schedule: Q03HX024 (ip), vehicle: saline) was 151 % of control; the T/C (endpoint: mean survival time, dose: 25.0 mg/kg/injection, schedule: Q01DX009 (ip), vehicle: Klucel (hydroxypropylcellulose) (HPC)) is 102 % of control; the T/C (endpoint: mean survival time, dose: 32.0 mg/kg/injection, schedule: Q01DX001 (ip), vehicle: saline) was 107 % of control. Moreover, the T/C reads like this: (endpoint: mean survival time, dose: 32.0 mg/kg/injection, schedule: Q01DX001 (sc), vehicle: saline) 116 % of control; (endpoint: mean survival time, dose: 32.0 mg/kg/injection, schedule: Q03HX016 (ip), vehicle: saline) 117 % of control; (endpoint: mean survival time, dose: 32.0 mg/kg/injection, schedule: Q03HX024 (ip), vehicle: saline) 184 % of control; (endpoint: mean survival time, dose: 32.0 mg/kg/injection, schedule: Q04DX003 (ip), vehicle: saline) 116 % of control; (endpoint: mean survival time, dose: 32.0 mg/kg/injection, schedule: Q08DX002 (ip), vehicle: saline) 114 % of control; (endpoint: mean survival time, dose: 50.0 mg/kg/injection, schedule: Q01DX009 (ip), vehicle: Klucel (hydroxypropylcellulose) (HPC)) 120 % of control. In addition, the T/C (endpoint: mean survival time, dose: 64.0 mg/kg/injection, schedule: Q01DX001 (ip), vehicle: saline) is 108 % of control; the T/C (endpoint: mean survival time, dose: 64.0 mg/kg/injection, schedule: Q01DX001 (sc), vehicle: saline) was 111 % of control; the T/C (endpoint: mean survival time, dose: 64.0 mg/kg/injection, schedule: Q01DX009 (ip), vehicle: saline) was 174 % of control; the T/C (endpoint: mean survival time, dose: 64.0 mg/kg/injection, schedule: Q01DX009 (oral), vehicle: saline) was 121 % of control; the T/C (endpoint: mean survival time, dose: 64.0 mg/kg/injection, schedule: Q01DX009 (sc), vehicle: saline) is 156 % of control; the T/C (endpoint: mean survival time, dose: 64.0 mg/kg/injection, schedule: Q03HX008 (ip), vehicle: saline) is 150 % of control. The T/C is 151 % of control (endpoint: mean survival time, dose: 64.0 mg/kg/injection, schedule: Q03HX016 (ip), vehicle: saline); 94 % of control (endpoint: mean survival time, dose: 64.0 mg/kg/injection, schedule: Q03HX024 (ip), vehicle: saline); 113 % of control (endpoint: mean survival time, dose: 64.0 mg/kg/injection, schedule: Q08DX002 (ip), vehicle: saline); 113 % of control (endpoint: mean survival time, dose: 120.0 mg/kg/injection, schedule: Q01DX001 (ip), vehicle: acetone); 118 % of control (endpoint: mean survival time, dose: 120.0 mg/kg/injection, schedule: Q01DX009 (ip), vehicle: acetone); 110 % of control (endpoint: mean survival time, dose: 128.0 mg/kg/injection, schedule: Q01DX001 (ip), vehicle: saline). The T/C is, setting by setting: (endpoint: mean survival time, dose: 128.0 mg/kg/injection, schedule: Q01DX001 (sc), vehicle: saline) 115 % of control; (endpoint: mean survival time, dose: 128.0 mg/kg/injection, schedule: Q01DX009 (ip), vehicle: saline) 101 % of control; (endpoint: mean survival time, dose: 128.0 mg/kg/injection, schedule: Q01DX009 (sc), vehicle: saline) 111 % of control; (endpoint: mean survival time, dose: 128.0 mg/kg/injection, schedule: Q08DX002 (ip), vehicle: saline) 111 % of control; (endpoint: mean survival time, dose: 180.0 mg/kg/injection, schedule: Q01DX001 (ip), vehicle: acetone) 106 % of control; (endpoint: mean survival time, dose: 256.0 mg/kg/injection, schedule: Q01DX001 (ip), vehicle: saline) 122 % of control. Also, the T/C was 110 % of control (endpoint: mean survival time, dose: 256.0 mg/kg/injection, schedule: Q01DX001 (oral), vehicle: saline); 115 % of control (endpoint: mean survival time, dose: 256.0 mg/kg/injection, schedule: Q01DX001 (sc), vehicle: saline); 124 % of control (endpoint: mean survival time, dose: 256.0 mg/kg/injection, schedule: Q01DX009 (oral), vehicle: saline); 120 % of control (endpoint: mean survival time, dose: 400.0 mg/kg/injection, schedule: Q01DX001 (ip), vehicle: acetone); 117 % of control (endpoint: mean survival time, dose: 512.0 mg/kg/injection, schedule: Q01DX001 (oral), vehicle: saline); 102 % of control (endpoint: median survival time, dose: 10.0 mg/kg/injection, schedule: Q01DX009 (ip), vehicle: water). Also, the T/C is 150 % of control (endpoint: median survival time, dose: 40.0 mg/kg/injection, schedule: Q01DX009 (ip), vehicle: water) and 103 % of control (endpoint: median survival time, dose: 160.0 mg/kg/injection, schedule: Q01DX009 (ip), vehicle: water).
In the case of `CC(=O)C1=C(C)NC(C)=C(C(C)=O)C1C`, the T/C was 100 % of control under setting [1]; 93 % of control (endpoint: mean survival time, dose: 100.0 mg/kg/injection, schedule: Q04DX003 (ip), vehicle: saline with Tween-80); 95 % of control under setting [2]; 97 % of control (endpoint: mean survival time, dose: 200.0 mg/kg/injection, schedule: Q04DX003 (ip), vehicle: saline with Tween-80); 92 % of control (endpoint: mean survival time, dose: 400.0 mg/kg/injection, schedule: Q04DX003 (ip), vehicle: saline with Tween-80).
As to `O=C1C2C3C=CC(O3)C2C(=O)N1O` (stereo unspecified), the T/C is, setting by setting: (endpoint: mean survival time, dose: 12.5 mg/kg/injection, schedule: Q01DX009 (ip), vehicle: water) 97 % of control; (endpoint: mean survival time, dose: 25.0 mg/kg/injection, schedule: Q01DX009 (ip), vehicle: water) 96 % of control.

For the origin of these results see PubChem BioAssay AID256 (DTP/NCI, 2004).
